Data on 15 compounds can be found in patent US20230295118A1 (EnhancedBio Inc., priority 2022, published 2023).

Format in all cases: cell-based
For one experiment, the target named is T1, CDK6 (Homo sapiens, UniProt Q00534).
T1 construct: endogenous in cells
Nature of the experiment: CDK6 degradation (DC50, Dmax).

For another experiment, the target named is T2, CDK4 (Homo sapiens, UniProt P11802).
T2 construct: endogenous in cells
Nature of the experiment: CDK4 degradation (DC50, Dmax).

The test system of experiment [1] is mantle cell lymphoma cell (Mino or JeKo-1). Nature of the experiment: Antiproliferative effect, MTS cell viability assay. Summed up:
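MTS read-out (formazan absorbance at 490 nm) after 72 h exposure of Mino cells to 0–1 μM compound (0.0001, 0.001, 0.01, 0.1, 1 μM). Palbociclib and abemaciclib served as positive controls.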
For orientation: Formazan colour is commonly taken as a measure of viable cells.

[2] abbreviates: 72 h, mantle cell lymphoma cell (Mino or JeKo-1), MTS assay, read-out: IC50 (anti-proliferation).

Structures are written as SMILES. Like-named read-outs stand apart in the source and are kept apart here. Bounds are passed on as bounds.

T2 sequence (P11802 whole entry): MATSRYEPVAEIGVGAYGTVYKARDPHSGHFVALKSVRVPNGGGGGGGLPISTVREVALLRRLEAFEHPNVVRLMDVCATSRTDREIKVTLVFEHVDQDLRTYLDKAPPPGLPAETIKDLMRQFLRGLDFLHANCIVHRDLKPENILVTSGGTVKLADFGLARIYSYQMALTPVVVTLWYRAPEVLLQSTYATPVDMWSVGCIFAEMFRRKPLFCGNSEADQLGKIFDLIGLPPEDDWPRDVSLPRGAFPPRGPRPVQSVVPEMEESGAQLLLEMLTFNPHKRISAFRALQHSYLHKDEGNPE
T1 sequence (Q00534 whole entry): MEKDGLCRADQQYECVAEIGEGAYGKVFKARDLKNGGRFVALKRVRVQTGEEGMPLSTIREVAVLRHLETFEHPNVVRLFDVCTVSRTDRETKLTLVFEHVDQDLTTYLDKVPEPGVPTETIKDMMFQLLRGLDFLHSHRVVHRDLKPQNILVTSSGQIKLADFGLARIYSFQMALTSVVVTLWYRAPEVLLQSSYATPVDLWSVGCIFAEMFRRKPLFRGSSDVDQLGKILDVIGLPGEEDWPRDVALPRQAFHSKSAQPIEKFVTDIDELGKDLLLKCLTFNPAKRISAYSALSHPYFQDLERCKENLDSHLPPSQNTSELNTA

Consider `CC(=O)c1c(C)c2cnc(Nc3ccc(N4CCN(C5CCN(C(=O)N6CCC(C7CCN(c8ccc9c(c8)C(=O)N(C8CCC(=O)NC8=O)C9=O)CC7)CC6)CC5)CC4)cn3)nc2n(C2CCCC2)c1=O` (stereo not shown) [Compound 85, 5-(1′-(4-(4-(6-((6-acetyl-8-cyclopentyl-5-methyl-7-oxo-7,8-dihydropyrido[2,3-d]pyrimidin-2-yl)amino)pyridin-3-yl)piperazin-1-yl)piperidine-1-carbonyl)-[4,4′-bipiperidin]-1-yl)-2-(2,6-dioxopiperidin-3-yl) isoindoline-1,3-dione], for which, on CDK6, the DC50 – broadly, the concentration giving 50% degradation – was more than 200 nM and the Dmax – broadly, the greatest extent of degradation seen – was more than 60%. On CDK4, the DC50 was more than 200 nM and the greatest degradation seen (Dmax) was more than 60%. Moreover, the IC50 in experiment [1] (setting [2]) was more than 200 nM.

In the case of `CC(=O)c1c(C)c2cnc(Nc3ccc(N4CCN(C5CCN(c6ccc(N7CCC(=O)NC7=O)cc6)CC5)CC4)cn3)nc2n(C2CCCC2)c1=O` [Compound 113, 1-(4-(4-(4-(6-((6-acetyl-8-cyclopentyl-5-methyl-7-oxo-7,8-dibydropyrido[2,3-d]pyrimidin-2-yl)amino)pyridin-3-yl)piperazin-1-yl)piperidin-1-yi)phenyl) dihydropyrimidine-2,4(1H,3H)-dione], the DC50 at CDK6 was less than 50 nM; at CDK4, 50 to 200 nM. For the same compound, the Dmax on CDK6 and at CDK4 was more than 80% throughout. The IC50 in experiment [1] (setting [2]) was less than 50 nM.

As for `CC(=O)c1c(C)c2cnc(Nc3ccc(N4CCN(C(=O)N5CCC(N6CCN(c7ccc8c(c7)CN(C7CCC(=O)NC7=O)C8=O)CC6)CC5)CC4)cn3)nc2n(C2CCCC2)c1=O` (stereo not shown) [Compound 4, 3-(5-(4-(1-(4-(6-((6-acetyl-8-cyclopentyl-5-methyl-7-oxo-7,8-dihydropyrido[2,3-d]pyrimidin-2-yl)amino)pyridin-3-yl)piperazine-1-carbonyl)piperidin-4-yl)piperazin-1-yl)-1-oxoisoindolin-2-yl)piperidine-2,6-dione], at CDK6, the DC50 was more than 200 nM and the Dmax is more than 50%. For the same compound, on CDK4, the 50% degradation concentration (DC50) is more than 200 nM and the Dmax was more than 50%. The IC50 in experiment [1] (setting [2]) was 50 to 200 nM.

Take `Cc1nc2c(F)cc(-c3nc(Nc4ccc(CN5CCN(c6cccc7c6C(=O)N(C6CCC(=O)NC6=O)C7=O)CC5)cn4)ncc3F)cc2n1C(C)C` (stereo not shown) [Compound 101, 2-(2,6-dioxopiperidin-3-yl)-4-(4-((6-((5-fluoro-4-(4-fluoro-1-isopropyl-2-methyl-1H-benzo[d]imidazol-6-yl)pyrimidin-2-yl)amino)pyridin-3-yl)methyl)piperazin-1-yl)isoindoline-1,3-dione]: the DC50 on CDK6 and at CDK4 was 50 to 200 nM throughout. In addition, the Dmax was more than 80% on CDK6 and more than 60% on CDK4. For the same compound, in experiment [1] (setting [2]), the IC50 is 50 to 200 nM.

On CDK6, `CC(=O)c1c(C)c2cnc(Nc3ccc(N4CCN(CCN5CCN(C(=O)Nc6ccc7c(c6)CN(C6CCC(=O)NC6=O)C7=O)CC5)CC4)cn3)nc2n(C2CCCC2)c1=O` (stereo not shown) [Compound 44] yielded a 50% degradation concentration (DC50) of 50 to 200 nM and a Dmax of more than 60%. Further, on CDK4, the DC50 was in the range of 50 to 200 nM and the Dmax was more than 60%. Moreover, in experiment [1] (setting [2]), the IC50 was 50 to 200 nM.

Regarding `Cc1nc2c(F)cc(-c3nc(Nc4ccc(CN5CCN(CC6CCN(c7ccc8c(c7)C(=O)N(C7CCC(=O)NC7=O)C8=O)CC6)CC5)cn4)ncc3F)cc2n1C(C)C` (stereo not shown) [Compound 149, 2-(2,6-dioxopiperidin-3-yl)-5-(4-((4-((6-((5-fluoro-4-(4-fluoro-1-isopropyl-2-methyl-1H-benzo[d]imidazol-6-yl)pyrimidin-2-yl)amino)pyridin-3-yl)methyl)piperazin-1-yl)methyl)piperidin-1-yl)isoindoline-1,3-dione], the 50% degradation concentration (DC50) on CDK6 and on CDK4 was less than 50 nM throughout. For the same compound, the maximal degradation (Dmax) on CDK6 and on CDK4 was more than 80% throughout. The IC50 in experiment [1] (setting [2]) is less than 50 nM.

At CDK6, `CC(=O)c1c(C)c2cnc(Nc3ccc(N4CCN(CC5CN(c6cccc7c6C(=O)N(C6CCC(=O)NC6=O)C7=O)C5)CC4)cn3)nc2n(C2CCCC2)c1=O` (stereo not shown) [Compound 81, 4-(3-((4-(6-((6-acetyl-8-cyclopentyl-5-methyl-7-oxo-7,8-dihydropyrido[2,3-d]pyrimidin-2-yl)amino)pyridin-3-yl)piperazin-1-yl)methyl)azetidin-1-yl)-2-(2,6-dioxopiperidin-3-yl) isoindoline-1,3-dione] had a DC50 of 50 to 200 nM and a maximal degradation (Dmax) of more than 80%. On CDK4, this compound showed a DC50 of 50 to 200 nM and a maximal degradation (Dmax) of more than 80%. Also, the IC50 in experiment [1] (setting [2]) was less than 50 nM.

As to `Cc1nc2c(F)cc(-c3nc(Nc4ccc(CN5CCN(CCNc6cccc7c6CN(C6CCC(=O)NC6=O)C7=O)CC5)cn4)ncc3F)cc2n1C(C)C` (stereo not shown) [Compound 93], at CDK6, the DC50 lay in the range of 50 to 200 nM and the “Dmax CDK6” value is on record as “A (A: >80%)”. Further, at CDK4, the DC50 was in the range of 50 to 200 nM and the “Dmax CDK4” value was “A (A: >80%)”. Further, the IC50 in experiment [1] (mantle cell lymphoma cell (Mino or JeKo-1); MTS assay, 72 h; read-out: IC50 (anti-proliferation)) is less than 50 nM.

`CC(=O)c1c(C)c2cnc(Nc3ccc(N4CCN(CC5CCN(C(=O)N6CCN(c7ccc8c(c7)CN(C7CCC(=O)NC7=O)C8=O)CC6)CC5)CC4)cn3)nc2n(C2CCCC2)c1=O` (stereo not shown) [Compound 32, 3-(5-(4-(4-((4-(6-((6-acetyl-8-cyclopentyl-5-methyl-7-oxo-7,8-dihydropyrido[2,3-d]pyrimidin-2-yl)amino)pyridin-3-yl)piperazin-1 - yl)methyl)piperidine-1-carbonyl)piperazin-1-yl)-1-oxoisoindolin-2-yl)piperidine-2,6-dione]: at CDK6, the half-maximal degradation concentration (DC50) is 50 to 200 nM and the Dmax was more than 60%. At CDK4, the DC50 was in the range of 50 to 200 nM and the Dmax is more than 60%. The IC50 in experiment [1] (setting [2]) lay within 50 to 200 nM.

On to `CC(=O)c1c(C)c2cnc(Nc3ccc(N4CCN(CCNc5ccc6c(c5)CN(C5CCC(=O)NC5=O)C6=O)CC4)cn3)nc2n(C2CCCC2)c1=O` (stereo not shown) [Compound 48, 3-(5-((2-(4-(6-((6-acetyl-8-cyclopentyl-5-methyl-7-oxo-7,8-dihydropyrido[2,3-d]pyrimidin-2-yl)amino)pyridin-3-yl)piperazin-1-yl)ethyl)amino)-1-oxoisoindolin-2-yl)piperidine-2,6-dione], for which the 50% degradation concentration (DC50) at CDK6 and on CDK4 was less than 50 nM each time. Also, the Dmax on CDK6 and at CDK4 was more than 80% each time. In addition, the IC50 in experiment [1] (setting [2]) is less than 50 nM.

Regarding `CC(=O)c1c(C)c2cnc(Nc3ccc(N4CCN(CCCNc5ccc6c(c5)CN(C5CCC(=O)NC5=O)C6=O)CC4)cn3)nc2n(C2CCCC2)c1=O` (stereo not shown) [Compound 50, 3-(5-((3-(4-(6-((6-acetyl-8-cyclopentyl-5-methyl-7-oxo-7,8-dihydropyrido[2,3-d]pyrimidin-2-yl)amino)pyridin-3-yl)piperazin-1-yl)propyl)amino)-1-oxoisoindolin-2-yl)piperidine-2,6-dione], at CDK6, the 50% degradation concentration (DC50) was less than 50 nM and the greatest degradation seen (Dmax) is more than 80%. In addition, on CDK4, the half-maximal degradation concentration (DC50) was less than 50 nM and the Dmax is more than 80%. For the same compound, the IC50 in experiment [1] (setting [2]) is less than 50 nM. In addition, the “inhibition of cell proliferation of Mino cells” value in experiment [1] (Mino cells; 0-1 μM; 72 h; result in words) is reported as “dose-dependent inhibition of cell proliferation”.

`CC(=O)c1c(C)c2cnc(Nc3ccc(N4CCN(CCCN(C)c5ccc6c(c5)C(=O)N(C5CCC(=O)NC5=O)C6=O)CC4)cn3)nc2n(C2CCCC2)c1=O` (stereo not shown) [Compound 57, 5-((3-(4-(6-((6-acetyl-8-cyclopentyl-5-methyl-7-oxo-7,8-dihydropyrido[2,3-d]pyrimidin-2-yl)amino)pyridin-3-yl)piperazin-1-yl)propyl)(methyl)amino)-2-(2,6-dioxopiperidin-3-yl)isoindoline-1,3-dione]: on CDK6, the half-maximal degradation concentration (DC50) lay within 50 to 200 nM and the Dmax is more than 60%. At CDK4, this compound returned a DC50 of 50 to 200 nM and a Dmax of more than 60%. For the same compound, the IC50 in experiment [1] (setting [2]) lay within 50 to 200 nM.

`CC(=O)c1c(C)c2cnc(Nc3ccc(N4CCN(C(=O)C5CN(c6ccc7c(c6)CN(C6CCC(=O)NC6=O)C7=O)C5)CC4)cn3)nc2n(C2CCCC2)c1=O` (stereo not shown) [Compound 122, 3-(5-(3-(4-(6-((6-acetyl-8-cyclopentyl-5-methyl-7-oxo-7,8-dihydropyrido[2,3-d]pyrimidin-2-yl)amino)pyridin-3-yl)piperazine-1-carbonyl)azetidin-1-yl)-1-oxoisoindolin-2-yl) piperidine-2,6-dione]: on CDK6, the half-maximal degradation concentration (DC50) was less than 50 nM and the maximal degradation (Dmax) was more than 80%. On CDK4, this compound displayed a DC50 of less than 50 nM and a maximal degradation (Dmax) of more than 80%. The IC50 in experiment [1] (setting [2]) is less than 50 nM.

For `CC(=O)c1c(C)c2cnc(Nc3ccc(N4CCN(CCCCNc5ccc6c(c5)CN(C5CCC(=O)NC5=O)C6=O)CC4)cn3)nc2n(C2CCCC2)c1=O` (stereo not shown) [Compound 54, 3-(5-((4-(4-(6-((6-acetyl-8-cyclopentyl-5-methyl-7-oxo-7,8-dihydropyrido[2,3-d]pyrimidin-2-yl)amino)pyridin-3-yl)piperazin-1-yl)butyl)amino)-1-oxoisoindolin-2-yl)piperidine-2,6-dione], at CDK6, the DC50 was in the range of 50 to 200 nM and the Dmax is more than 60%. Also, at CDK4, the DC50 is 50 to 200 nM and the Dmax is more than 60%. Further, the IC50 in experiment [1] (setting [2]) was less than 50 nM.

At CDK6, `CC(=O)c1c(C)c2cnc(Nc3ccc(N4CCN(C(=O)N5CCC(CN6CCC(c7ccc8c(c7)CN(C7CCC(=O)NC7=O)C8=O)CC6)CC5)CC4)cn3)nc2n(C2CCCC2)c1=O` (stereo not shown) [Compound 18, 3-(5-(1-((1-(4-(6-((6-acetyl-8-cyclopentyl-5-methyl-7-oxo-7,8-dihydropyrido[2,3-d]pyrimidin-2-yl)amino)pyridin-3-yl)piperazine-1-carbonyl)piperidin-4-yl)methyl)piperidin-4-yl)-1-oxoisoindolin-2-yl) piperidine-2,6-dione] had a DC50 of more than 200 nM and a Dmax of more than 50%. At CDK4, this compound displayed a DC50 of more than 200 nM and a Dmax of more than 50%. The IC50 in experiment [1] (setting [2]) was more than 200 nM.
